Results: ChEMBL document CHEMBL1158456, “Synergistic effect of zanamivir-porphyrin conjugates on inhibition of neuraminidase and inactivation of influenza virus” (J Med Chem, 2009)
The source made the active and inactive calls. The calls are words filed in the database; no cut-off is given here.

How the values were obtained:
Neuraminidase [1] = target: T1, Neuraminidase (Influenza A virus, UniProt B4URF0); assay: Inhibition of influenza A virus A/WSN/1933 H1N1 neuraminidase using NA-STAR substrate after 15 mins incubation at room temperature by fluorescent assay
[2] = target: Neuraminidase (Influenza A virus) (UniProt B4URF0); assay: Inhibition of influenza A virus A/WSN/1933 H1N1 neuraminidase at 10 nM using NA-STAR substrate after 15 mins incubation at room temperature by fluorescent assay relative to control
[3] = target: Neuraminidase (Influenza A virus) (UniProt B4URF0); assay: Inhibition of influenza A virus A/WSN/1933 H1N1 neuraminidase at 40 nM using NA-STAR substrate after 15 mins incubation at room temperature by fluorescent assay relative to control
[4] = target: Neuraminidase (Influenza A virus) (UniProt B4URF0); assay: Inhibition of influenza A virus A/Vietnam/1194/2004 H5N1 neuraminidase at 10 nM using NA-STAR substrate after 15 mins incubation at room temperature by fluorescent assay relative to control
[5] = target: Neuraminidase (Influenza A virus) (UniProt B4URF0); assay: Inhibition of influenza A virus A/Vietnam/1194/2004 H5N1 neuraminidase at 40 nM using NA-STAR substrate after 15 mins incubation at room temperature by fluorescent assay relative to control
Influenza A virus [6] = assay: Antiviral activity against influenza A virus A/WSN/1933 H1N1 infected in MDCK cells assessed as protection against virus-induced cytopathic effect after 48 hrs; format: functional, organism-based
Influenza A virus [7] = assay: Antiviral activity against influenza A virus A/Vietnam/1194/2004 H5N1 infected in MDCK cells assessed as protection against virus-induced cytopathic effect after 48 hrs; format: functional, organism-based
Influenza A virus [8] = assay: Antiviral activity against influenza A virus A/WSN/1933 H1N1 infected in MDCK cells after 3 days by plaque reduction assay; format: functional, organism-based; details: 72 h
Influenza A virus [9] = assay: Antiviral activity against influenza A virus A/Vietnam/1194/2004 H5N1 infected in MDCK cells after 3 days by plaque reduction assay; format: functional, organism-based; details: 72 h
Influenza A virus [10] = assay: Ratio of EC50 for drug to EC50 for zanamivir against influenza A virus A/Vietnam/1194/2004 H5N1 by plaque reduction assay; format: functional
Influenza A virus [11] = assay: Inhibition of influenza A virus A/WSN/1933 H1N1-induced hemagglutinination of chicken RBC; format: functional, organism-based
[12] = test system: Influenza A virus (A/Vietnam/1194/2004(H5N1)); assay: Binding affinity to influenza A virus A/Vietnam/1194/2004 H5N1 hemagglutininin to alpha-2,3-sialic acid galactosyl oligomers
Influenza A virus [13] = assay: Antiviral activity against influenza A virus A/WSN/1933 H1N1 infected in MDCK cells assessed as reduction of infectious viral titer at 0.4 to 10 uM incubated for 1 hr measured after 3 days relative to control; format: functional; set-up: scale not given: the % may be the effect or the level left
Influenza A virus [14] = assay: Antiviral activity against influenza A virus A/WSN/1933 H1N1 infected in MDCK cells assessed as reduction of infectious viral titer incubated for 1 hr measured after 3 days; format: functional, organism-based
Influenza A virus [15] = assay: Antiviral activity against influenza A virus A/WSN/1933 H1N1 infected in MDCK cells assessed as reduction of infectious viral titer at 40 nM incubated for 1 hr measured after 3 days relative to control; format: functional; set-up: scale not given: the % may be the effect or the level left
Influenza A virus [16] = assay: Antiviral activity against influenza A virus A/WSN/1933 H1N1 infected in MDCK cells assessed as reduction of infectious viral titer at 200 nM incubated for 1 hr measured after 3 days; format: functional; set-up: scale not given: the % may be the effect or the level left
Influenza A virus [17] = assay: Antiviral activity against influenza A virus A/WSN/1933 H1N1 infected in MDCK cells assessed as reduction of infectious viral titer at 100 nM incubated for 1 hr under laminar flow hood light before infection measured after 3 days; format: functional, organism-based
Influenza A virus [18] = assay: Antiviral activity against influenza A virus A/WSN/1933 H1N1 infected in MDCK cells assessed as reduction of infectious viral titer at 500 nM incubated for 1 hr under laminar flow hood light before infection measured after 3 days; format: functional, organism-based
Influenza A virus [19] = assay: Antiviral activity against influenza A virus A/WSN/1933 H1N1 infected in MDCK cells assessed as reduction of infectious viral titer at 100 nM incubated for 1 hr under laminar flow hood light before infection measured after 3 days in presence of 10 fold excess zanamivir; format: functional, organism-based
Influenza A virus [20] = assay: Antiviral activity against influenza A virus A/WSN/1933 H1N1 infected in MDCK cells assessed as reduction of infectious viral titer at 500 nM incubated for 1 hr under laminar flow hood light before infection measured after 3 days in presence of 10 fold excess zanamivir; format: functional, organism-based
Neuraminidase [21] = target: T1, Neuraminidase; assay: Inhibition of influenza A virus A/Vietnam/1194/2004 H5N1 neuraminidase using NA-STAR substrate after 15 mins incubation at room temperature by fluorescent assay

T1 sequence (B4URF0 whole entry): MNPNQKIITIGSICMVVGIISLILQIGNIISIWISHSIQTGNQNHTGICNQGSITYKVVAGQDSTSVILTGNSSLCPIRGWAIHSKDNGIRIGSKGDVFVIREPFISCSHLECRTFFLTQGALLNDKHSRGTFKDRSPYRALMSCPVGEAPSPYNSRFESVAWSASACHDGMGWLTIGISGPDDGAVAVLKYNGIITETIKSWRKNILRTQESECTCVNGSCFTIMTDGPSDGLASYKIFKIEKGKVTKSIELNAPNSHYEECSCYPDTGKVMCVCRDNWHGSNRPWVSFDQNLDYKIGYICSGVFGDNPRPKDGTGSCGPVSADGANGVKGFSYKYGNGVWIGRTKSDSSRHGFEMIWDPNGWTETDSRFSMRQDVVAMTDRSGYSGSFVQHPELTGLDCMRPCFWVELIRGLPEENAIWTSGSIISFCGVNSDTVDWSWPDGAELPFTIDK
Chain of Neuraminidase (Influenza A virus) (B4URF0 as listed by the source): as the sequence (B4URF0 whole entry) above

Compound	IC50 (Neuraminidase [1])	Activity (Influenza A virus [6])	Activity (Influenza A virus [7])	EC50 (Influenza A virus [8])	Activity (Influenza A virus [11])	Activity [12]	Activity (Influenza A virus [17])	Activity (Influenza A virus [18])	other results
CC(=O)N[C@H]1[C@H]([C@H](OC(=O)NCc2cn(CCOCOc3ccc(-c4c5nc(c(-c6ccc(OCOCCn7cc(CNC(=O)O[C@@H]([C@@H]8OC(C(=O)O)=C[C@H](N=C(N)N)[C@H]8NC(C)=O)[C@H](O)CO)nn7)cc6)c6ccc([nH]6)c(-c6ccc(OCOCCn7cc(CNC(=O)O[C@@H]([C@@H]8OC(C(=O)O)=C[C@H](N=C(N)N)[C@H]8NC(C)=O)[C@H](O)CO)nn7)cc6)c6nc(c(-c7ccc(OCOCCn8cc(CNC(=O)O[C@@H]([C@@H]9OC(C(=O)O)=C[C@H](N=C(N)N)[C@H]9NC(C)=O)[C@H](O)CO)nn8)cc7)c7ccc4[nH]7)C=C6)C=C5)cc3)nn2)[C@H](O)CO)OC(C(=O)O)=C[C@@H]1N=C(N)N	11 nM								
CC(=O)N[C@H]1[C@H]([C@H](OC(=O)NCc2cn(CCOCOc3ccc(-c4c5nc(c(-c6ccc(OCOCCn7cc(CNC(=O)O[C@@H]([C@@H]8OC(C(=O)O)=C[C@H](NC(=N)N)[C@H]8NC(C)=O)[C@H](O)CO)nn7)cc6)c6ccc([nH]6)c(-c6ccc(OCOCCn7cc(CNC(=O)O[C@@H]([C@@H]8OC(C(=O)O)=C[C@H](NC(=N)N)[C@H]8NC(C)=O)[C@H](O)CO)nn7)cc6)c6nc(c(-c7ccc(OCOCCn8cc(CNC(=O)O[C@@H]([C@@H]9OC(C(=O)O)=C[C@H](NC(=N)N)[C@H]9NC(C)=O)[C@H](O)CO)nn8)cc7)c7ccc4[nH]7)C=C6)C=C5)cc3)nn2)[C@H](O)CO)OC(C(=O)O)=C[C@@H]1NC(=N)N		Active	Active	2 nM	inactive	inactive			inhibition [2]: 24%; inhibition [3]: 51%; inhibition [4]: 24%; inhibition [5]: 51%; EC50 (Influenza A virus [9]): 11 nM; Ratio EC50 (Influenza A virus [10]): 55
CC(=O)N[C@H]1[C@H]([C@H](OC(=O)NCc2cn(CCOCCOCCOCCNC(=O)COc3ccc(-c4c5nc(c(-c6ccc(OCC(=O)NCCOCCOCCOCCn7cc(CNC(=O)O[C@@H]([C@@H]8OC(C(=O)O)=C[C@H](NC(=N)N)[C@H]8NC(C)=O)[C@H](O)CO)nn7)cc6)c6ccc([nH]6)c(-c6ccc(OCC(=O)NCCOCCOCCOCCn7cc(CNC(=O)O[C@@H]([C@@H]8OC(C(=O)O)=C[C@H](NC(=N)N)[C@H]8NC(C)=O)[C@H](O)CO)nn7)cc6)c6nc(c(-c7ccc(OCC(=O)NCCOCCOCCOCCn8cc(CNC(=O)O[C@@H]([C@@H]9OC(C(=O)O)=C[C@H](NC(=N)N)[C@H]9NC(C)=O)[C@H](O)CO)nn8)cc7)c7ccc4[nH]7)C=C6)C=C5)cc3)nn2)[C@H](O)CO)OC(C(=O)O)=C[C@@H]1NC(=N)N		Active	Active	0.5 nM	inactive	inactive			
CC(=O)N[C@H]1[C@H]([C@H](OC(=O)NCc2cn(CCOCCOCCOCCOCCNC(=O)COc3ccc(-c4c5nc(c(-c6ccc(OCC(=O)NCCOCCOCCOCCOCCn7cc(CNC(=O)O[C@@H]([C@@H]8OC(C(=O)O)=C[C@H](NC(=N)N)[C@H]8NC(C)=O)[C@H](O)CO)nn7)cc6)c6ccc([nH]6)c(-c6ccc(OCC(=O)NCCOCCOCCOCCOCCn7cc(CNC(=O)O[C@@H]([C@@H]8OC(C(=O)O)=C[C@H](NC(=N)N)[C@H]8NC(C)=O)[C@@H](O)CO)nn7)cc6)c6nc(c(-c7ccc(OCC(=O)NCCOCCOCCOCCOCCn8cc(CNC(=O)O[C@@H]([C@@H]9OC(C(=O)O)=C[C@H](NC(=N)N)[C@H]9NC(C)=O)[C@H](O)CO)nn8)cc7)c7ccc4[nH]7)C=C6)C=C5)cc3)nn2)[C@H](O)CO)OC(C(=O)O)=C[C@@H]1NC(=N)N		Active	Active	0.1 nM	inactive	inactive	Active	Active	Activity (Influenza A virus [13]): 60%; Activity (Influenza A virus [14]): Dose-dependent effect; Activity (Influenza A virus [15]): <20%; Activity (Influenza A virus [16]): >95%; Activity (Influenza A virus [19]): inactive; Activity (Influenza A virus [20]): inactive
CC(=O)N[C@H]1[C@H]([C@H](OC(=O)NCc2cn(CCOCCOCCOCCNC(=O)COc3ccc(-c4c5nc(c(-c6ccc(OCC(=O)NCCOCCOCCOCCn7cc(CNC(=O)O[C@@H]([C@@H]8OC(C(=O)O)=C[C@H](N=C(N)N)[C@H]8NC(C)=O)[C@H](O)CO)nn7)cc6)c6ccc([nH]6)c(-c6ccc(OCC(=O)NCCOCCOCCOCCn7cc(CNC(=O)O[C@@H]([C@@H]8OC(C(=O)O)=C[C@H](N=C(N)N)[C@H]8NC(C)=O)[C@H](O)CO)nn7)cc6)c6nc(c(-c7ccc(OCC(=O)NCCOCCOCCOCCn8cc(CNC(=O)O[C@@H]([C@@H]9OC(C(=O)O)=C[C@H](N=C(N)N)[C@H]9NC(C)=O)[C@H](O)CO)nn8)cc7)c7ccc4[nH]7)C=C6)C=C5)cc3)nn2)[C@H](O)CO)OC(C(=O)O)=C[C@@H]1N=C(N)N	8.5 nM								IC50 (Neuraminidase [21]): 16 nM
CC(=O)N[C@H]1[C@H]([C@H](O)[C@H](O)CO)OC(C(=O)O)=C[C@@H]1NC(=N)N [ZANAMIVIR]				11 nM			inactive	inactive	EC50 (Influenza A virus [9]): 613 nM
CC(=O)N[C@H]1[C@H]([C@H](OC(=O)NCc2cn(CCOCCOCCOCCOCCNC(=O)COc3ccc(-c4c5nc(c(-c6ccc(OCC(=O)NCCOCCOCCOCCOCCn7cc(CNC(=O)O[C@@H]([C@@H]8OC(C(=O)O)=C[C@H](N=C(N)N)[C@H]8NC(C)=O)[C@H](O)CO)nn7)cc6)c6ccc([nH]6)c(-c6ccc(OCC(=O)NCCOCCOCCOCCOCCn7cc(CNC(=O)O[C@@H]([C@@H]8OC(C(=O)O)=C[C@H](N=C(N)N)[C@H]8NC(C)=O)[C@@H](O)CO)nn7)cc6)c6nc(c(-c7ccc(OCC(=O)NCCOCCOCCOCCOCCn8cc(CNC(=O)O[C@@H]([C@@H]9OC(C(=O)O)=C[C@H](N=C(N)N)[C@H]9NC(C)=O)[C@H](O)CO)nn8)cc7)c7ccc4[nH]7)C=C6)C=C5)cc3)nn2)[C@H](O)CO)OC(C(=O)O)=C[C@@H]1N=C(N)N	3.7 nM								IC50 (Neuraminidase [21]): 7.6 nM
Oc1ccc(-c2c3nc(c(-c4ccc(O)cc4)c4ccc([nH]4)c(-c4ccc(O)cc4)c4nc(c(-c5ccc(O)cc5)c5ccc2[nH]5)C=C4)C=C3)cc1							inactive	inactive	
